The values that follow come from EP2017264A1, “Substituted phenyl propargyl compounds, method for their manufacture and their use as herbicides and plant growth regulators” (BAYER CROPSCIENCE AG, priority 2007, dated 2009).

As a reminder, the chromatographic logP is a lipophilicity value derived from retention on a column. A low value points to a more hydrophilic compound.

Data set [1] relates to Echinochloa crus-galli, Setaria viridis, Stellaria media und Veronica persica. As to the kind of experiment: Pre-emergence weed control, greenhouse pot test. The following applies: Aufwandmenge von 1,28 kg oder weniger Aktivsubstanz pro Hektar, visual rating after 3 bis 4 Wochen vs untreated controls. The class given is in vivo. The text has this:
Samen bzw. Rhizomstücke von mono- und dikotylen Unkrautpflanzen wurden in Plastiktöpfen in sandiger Lehmerde ausgelegt und mit Erde abgedeckt. Die in Form von benetzbaren Pulvern oder Emulsionskonzentraten formulierten erfindungsgemäßen Verbindungen wurden dann als wäßrige Suspension bzw. Emulsion mit einer Wasseraufwandmenge von umgerechnet 600 bis 800 l/ha in unterschiedlichen Dosierungen auf die Oberfläche der Abdeckerde appliziert.
Nach der Behandlung wurden die Töpfe im Gewächshaus aufgestellt und unter guten Wachstumsbedingungen für die Unkräuter gehalten. Die optische Bonitur der Pflanzen- bzw. Auflaufschäden erfolgte nach dem Auflaufen der Versuchspflanzen nach einer Versuchszeit von 3 bis 4 Wochen im Vergleich zu unbehandelten Kontrollen. Wie die Testergebnisse zeigten, wiesen die erfindungsgemäßen Verbindungen eine gute herbizide Vorauflaufwirksamkeit gegen ein breites Spektrum von Ungräsern und Unkräutern auf.

Data set [2] has as its system Echinochloa crus-galli, Setaria viridis, Abuthilon theophrasti, Amaranthus retroflexus und Veronica persica. Nature of the data set: Post-emergence weed control, greenhouse pot test. The class given is in vivo. The following applies: three-leaf stage, Aufwandmenge von 1,28 kg und weniger Aktivsubstanz pro Hektar, visual rating after ca. 3 bis 4 Wochen vs untreated controls. The text has this: Samen bzw. Rhizomstücke von mono- und dikotylen Unkräutern wurden in Plastiktöpfen in sandigem Lehmboden ausgelegt, mit Erde abgedeckt und im Gewächshaus unter guten Wachstumsbedingungen angezogen. Drei Wochen nach der Aussaat wurden die Versuchspflanzen im Dreiblattstadium behandelt. Die als Spritzpulver bzw. als Emulsionskonzentrate formulierten erfindungsgemäßen Verbindungen wurden in verschiedenen Dosierungen mit einer Wasseraufwandmenge von umgerechnet 600 bis 800 I/ha auf die grünen Pflanzenteile gesprüht. Nach ca. 3 bis 4 Wochen Standzeit der Versuchspflanzen im Gewächshaus unter optimalen Wachstumsbedingungen wurde die Wirkung der Präparate optisch im Vergleich zu unbehandelten Kontrollen bonitiert. Die erfindungsgemäßen Mittel wiesen auch im Nachauflauf eine gute herbizide Wirksamkeit gegen ein breites Spektrum wirtschaftlich wichtiger Ungräser und Unkräuter auf. Beispielsweise zeigten die Beispiele Nr.

A short description of data set [3]: physchem.
Experimental: "LogP" = Verteilungskoeffizient in einem Zweiphasengemisch aus n-Octanol und Wasser.
Die log P-Daten wurden in Übereinstimmung mit der EEC Direktive 79/831, Anlage V.A8 (Annex V.A8) mittels HPLC (High Performance Liquid Chromatography) auf einer Umkehrphase-Säule (reversed-phase column) (C18) mit folgenden Methoden bestimmt: Temperatur: 40°C; Mobile Phase: 0,1 % bzw. 0,06 %ige wässrige Ameisensäure oder 0,1 % wässriger Phosphorsäure und Acetonitril; linearer Gradient von 10% Acetonitril bis 90% bzw. 95 % Acetonitril. Die Kalibrierung wurde ausgeführt mit Hilfe unverzweigter Alkan-2-one (bestehend aus 3 bis 13 bzw.16 Kohlenstoff-Atomen) mit bekannten IogP-Werten (Bestimmung der IogP-Werte über die Retentionszeiten mittels linearer Interpolation zwischen zwei nachfolgenden Alkanonen).

As to `CCOc1ccc(C=NOCC#Cc2cccc(SC)c2)cn1` [Beispiel 5.190], in data set [1], the “herbizide Wirkung gegen Schadpflanzen im Vorauflaufverfahren” value is “sehr gute herbizide Wirkung”. Also, the “herbizide Wirkung gegen Schadpflanzen im Nachauflaufverfahren” value in data set [2] is recorded as “sehr gute herbizide Wirkung”. Moreover, in data set [3], the chromatographic logP turned out to be 4.42.
Regarding `CC(C)Oc1ccc(C=NOCC#Cc2cccc([S+](C)[O-])c2)cn1` (centres unmarked) [Beispiel 5.181], the “herbizide Wirkung gegen Schadpflanzen im Vorauflaufverfahren” value in data set [1] was “sehr gute herbizide Wirkung”. In data set [2], the “herbizide Wirkung gegen Schadpflanzen im Nachauflaufverfahren” value is recorded as “sehr gute herbizide Wirkung”. Further, the chromatographic logP in data set [3] came out at 2.77.
As to `COc1ccc(C=NOCC#Cc2cccc([S+](C)[O-])c2)c(OC)n1` (centres unmarked) [Beispiel 5.185], in data set [2], the “herbizide Wirkung gegen Schadpflanzen im Nachauflaufverfahren” value is given as “sehr gute herbizide Wirkung”. Further, the chromatographic logP in data set [3] turned out to be 2.89.
`CCOc1ccc(C=NOCC#Cc2cccc([S+](C)[O-])c2)cn1` (centres unmarked) [Beispiel 5.189]: the “herbizide Wirkung gegen Schadpflanzen im Vorauflaufverfahren” value in data set [1] is recorded as “sehr gute herbizide Wirkung”. The “herbizide Wirkung gegen Schadpflanzen im Nachauflaufverfahren” value in data set [2] is given as “sehr gute herbizide Wirkung”. Moreover, the chromatographic logP in data set [3] turned out to be 2.42.
As for `COc1ccc(C=NOCC#Cc2cccc(SC)c2)cn1` [Beispiel 5.120], the “herbizide Wirkung gegen Schadpflanzen im Vorauflaufverfahren” value in data set [1] was “sehr gute herbizide Wirkung”. In addition, the “herbizide Wirkung gegen Schadpflanzen im Nachauflaufverfahren” value in data set [2] is given as “sehr gute herbizide Wirkung”. In addition, the chromatographic logP in data set [3] turned out to be 4.
As to `CSc1cccc(C#CCON=Cc2ccc(OC(C)C)nc2)c1` [Beispiel 5.177], in data set [1], the “herbizide Wirkung gegen Schadpflanzen im Vorauflaufverfahren” value is “sehr gute herbizide Wirkung”. In addition, the “herbizide Wirkung gegen Schadpflanzen im Nachauflaufverfahren” value in data set [2] was “sehr gute herbizide Wirkung”. Also, the chromatographic logP in data set [3] was 4.87.
For `COc1ncc(C=NOCC#Cc2cc(SC)c(F)c(SC)c2)cc1F` [Beispiel 5.198], the chromatographic logP in data set [3] was 4.65.
In data set [3], `CCC(=NOCC#Cc1cccc(CC#N)c1)c1ccccc1` [Beispiel 1.406] returned a chromatographic logP of 3.87.
In the case of `COc1ccc(C=NOCC#Cc2ccc(OC)c(SC)c2)cn1` [Beispiel 5.138], the chromatographic logP in data set [3] is 3.83.
Still for that read-out and setting: then `C[S+]([O-])c1cccc(C#CCON=Cc2cc(C(F)(F)F)c(Cl)cn2)c1` (centres unmarked) [Beispiel 3.121], with 2.96.
For `COc1ncc(C=NOCC#Cc2cccc([S+](C)[O-])c2)cc1F` (centres unmarked) [Beispiel 5.041], the “herbizide Wirkung gegen Schadpflanzen im Vorauflaufverfahren” value in data set [1] is reported as “sehr gute herbizide Wirkung”. For the same molecule, the “herbizide Wirkung gegen Schadpflanzen im Nachauflaufverfahren” value in data set [2] is given as “sehr gute herbizide Wirkung”. In addition, the chromatographic logP in data set [3] turned out to be 2.28.
`CC(=NOCC#Cc1cccc(CC#N)c1)c1cccc(C)n1` [Beispiel 3.094] yielded a chromatographic logP in data set [3] of 2.96.
Still for that read-out and setting: then `CCC(=NOCC#Cc1cccc(CC#N)c1)c1ccc(C)cc1` [Beispiel 1.410], with 4.18; and `COc1ncc(Cl)nc1C=NOCC#Cc1cccc([S+](C)[O-])c1` (centres unmarked) [Beispiel 4.098], with 2.18.
The same measure, in the same setting: under `CSc1ccc(C=NOCC#Cc2cccc(CC#N)c2)cn1` [Beispiel 5.187] stands 3.18.
The molecule `COc1ccccc1C=NOCC#Cc1cc(SC)c(F)c(SC)c1` [Beispiel 1.450] yielded a chromatographic logP in data set [3] of 5.05.
Same read-out and setting: under `CCOc1ncc(C=NOCC#Cc2cccc(SC)c2)cc1F` [Beispiel 5.199] stands 4.68; under `CCC(=NOCC#Cc1cccc(SC)c1)c1ccc(F)cc1` [Beispiel 1.413], 4.97.
Still for that read-out and setting: under `COc1ccc(C=NOCC#Cc2cccc(SC)c2)c(OC)n1` [Beispiel 5.183] stands 4.93; under `COc1cc(F)ccc1C=NOCC#Cc1ccc(F)c(SC)c1` [Beispiel 1.066], 4.58; under `CC[S+]([O-])c1cc(C#CCON=Cc2ccc(OC)nc2)ccc1C` (centres unmarked) [Beispiel 5.134], 2.51.
Regarding `CCC(=NOCC#Cc1cccc(SC)c1)c1ccccc1` [Beispiel 1.405], the chromatographic logP in data set [3] stood at 4.84.
Still for that read-out and setting: then `CCC(=NOCC#Cc1cccc([S+](C)[O-])c1)c1cccc(Cl)c1Cl` (centres unmarked) [Beispiel 1.422], with 4.12; and `CC[S+]([O-])c1cc(C#CCON=Cc2ccc(F)cc2OC)ccc1OC` (centres unmarked) [Beispiel 1.402], with 3.19; and `CCC(=NOCC#Cc1cccc(SC)c1)c1ccccc1F` [Beispiel 1.417], with 4.84.
`CSc1cccc(C#CCON=Cc2ccc(SC)nc2)c1` [Beispiel 5.186] displayed a chromatographic logP in data set [3] of 4.22.
Molecule `C[S+]([O-])c1cccc(C#CCON=Cc2ccc(C3CCCC3)nc2)c1` (centres unmarked) [Beispiel 5.196] gave a chromatographic logP in data set [3] of 3.43.
For the molecule `CCC(=NOCC#Cc1cccc(OC)c1)c1ccccc1F` [Beispiel 1.415], the chromatographic logP in data set [3] stood at 4.42.
The same measure, in the same setting: under `COc1ncc(C=NOCC#Cc2cccc(SC)c2)cc1Br` [Beispiel 5.197] stands 4.81.
The same measure, in the same setting: under `COc1nccnc1C=NOCC#Cc1cccc(SC)c1` [Beispiel 4.084] stands 3.34; under `COc1cc(F)ccc1C=NOCC#Cc1ccccc1[S+](C)[O-]` (centres unmarked) [Beispiel 1.446], 2.86.
In the case of `COc1ccc(C=NOCC#Cc2cccc(CC#N)c2)c(OC)c1` [Beispiel 1.387], in data set [3], the chromatographic logP stood at 3.22.
Same read-out and setting: under `CCC(=NOCC#Cc1cccc(S(C)(=O)=O)c1)c1cccc(C)n1` [Beispiel 3.097] stands 2.93.
On the same count and under the same terms, then `CS(=O)(=O)c1ccc(C=NOCC#Cc2cccc(CC#N)c2)cn1` [Beispiel 5.200], with 2.18; and `COc1ccc(C=NOCC#Cc2ccc(F)c(F)c2[S+](C)[O-])cn1` (centres unmarked) [Beispiel 5.147], with 2.17; and `C[S+]([O-])c1cccc(C#CCON=Cc2ccc(OCC(F)(F)F)nc2OCC(F)(F)F)c1` (centres unmarked) [Beispiel 5.193], with 3.4.
Same read-out and setting: under `COc1ccc(C=NOCC#Cc2ccc(F)c([S+](C)[O-])c2F)cn1` (centres unmarked) [Beispiel 5.140] stands 2.17.
In turn, `COc1ccc(C=NOCC#Cc2ccccc2[S+](C)[O-])cn1` (centres unmarked) [Beispiel 5.145] showed a chromatographic logP in data set [3] of 2.19.
`CSc1ccc(C=NOCC#Cc2cccc([S+](C)[O-])c2)cn1` (centres unmarked) [Beispiel 5.188]: the “herbizide Wirkung gegen Schadpflanzen im Nachauflaufverfahren” value in data set [2] is on record as “sehr gute herbizide Wirkung”. In data set [3], this molecule yielded a chromatographic logP of 2.23.
The molecule `CCSc1cc(C#CCON=Cc2ccc(OC)nc2)ccc1C` [Beispiel 5.133] came in with a chromatographic logP in data set [3] of 4.9.
`COc1ccccc1C=NOCC#Cc1ccc(F)c(SC)c1` [Beispiel 1.053] gave a chromatographic logP in data set [3] of 4.51.
On to `CSc1cccc(C#CCON=Cc2nccnc2SC)c1` [Beispiel 4.078], for which the chromatographic logP in data set [3] turned out to be 4.18.
`Cc1ccc(C#CCON=Cc2ccccc2Oc2ccc(Cl)cc2)cc1[S+](C)[O-]` (centres unmarked) [Beispiel 1.379]: the chromatographic logP in data set [3] is 4.11. The chromatographic logP values of the last two molecules are within 0.2 log units of each other.
In data set [3], `COc1ccccc1C=NOCC#Cc1ccc(F)c([S+](C)[O-])c1F` (centres unmarked) [Beispiel 1.437] had a chromatographic logP of 2.66.
Turning to `COc1ccccc1C=NOCC#Cc1cccc([S+]([O-])C(F)(F)F)c1` (centres unmarked) [Beispiel 1.380], the chromatographic logP in data set [3] was 3.88.
On the same count and under the same terms, then `CCSc1cc(C#CCON=Cc2ccc(F)cc2OC)ccc1OC` [Beispiel 1.399], with 4.53.
Same read-out and setting: then `COc1ccc(C=NOCC#Cc2ccc(F)c(SC)c2)cn1` [Beispiel 5.125], with 2.94; and `COc1cc(F)ccc1C=NOCC#Cc1cccc(SC(C)C)c1` [Beispiel 1.431], with 5.26; and `COc1ccccc1C=NOCC#Cc1cccc(OC(F)(F)F)c1` [Beispiel 1.428], with 4.72.
The same measure, in the same setting: then `COc1ccccc1C=NOCC#Cc1ccc(C#N)c(SC)c1` [Beispiel 1.394], with 3.94; and `COc1ccc(C=NOCC#Cc2ccc(F)c(F)c2)cn1` [Beispiel 5.141], with 3.83; and `COc1nccnc1C=NOCC#Cc1cccc(S(C)(=O)=O)c1` [Beispiel 4.091], with 1.99.
Consider `CCC(=NOCC#Cc1cccc(OC)c1)c1ccccc1` [Beispiel 1.403], for which, in data set [3], the chromatographic logP was 4.45.
The same measure, in the same setting: under `CCC(=NOCC#Cc1cccc([S+](C)[O-])c1)c1ccccc1` (centres unmarked) [Beispiel 1.420] stands 2.93.
On the same count and under the same terms, then `COc1cc(F)ccc1C=NOCC#Cc1ccccc1SC` [Beispiel 1.442], with 4.29.
`COc1ccccc1C=NOCC#Cc1cc(C)c(F)c([S+](C)[O-])c1` (centres unmarked) [Beispiel 1.444] registered a chromatographic logP in data set [3] of 3.32.
The same measure, in the same setting: then `N#CCc1cccc(C#CCON=Cc2ccc(C3CCCC3)nc2)c1` [Beispiel 5.195], with 4.27; and `COc1ncc(Cl)nc1C=NOCC#Cc1cccc(SC)c1` [Beispiel 4.092], with 4.03; and `CC(=NOCC#Cc1cccc([S+](C)[O-])c1)c1cccc(C)n1` (centres unmarked) [Beispiel 3.092], with 1.75.
Same read-out and setting: under `COc1ccc(C=NOCC#Cc2cccc(S(C)(=O)=O)c2)cn1` [Beispiel 5.122] stands 2.5.
